Reference: US5925730A, “GnRH antagonists” (Ferring BV, priority 1997, dated 1999)
Starred links: 1 amine or outer side, 2 acyl side, 3 side chain; linkers in the order of their positions; H or OH if unused. Non-standard residues stand in square brackets, D forms with d. Residues, ends and D or L forms follow the SMILES beside them. Groups on a side chain read outwards from the residue. *: point of attachment. dPhe(4-NHCONH2) = NC(=O)Nc1ccc(C[C@@H](N)C(=O)O)cc1; Phe(4-NHCONH2) = NC(=O)Nc1ccc(C[C@H](N)C(=O)O)cc1; dPhe(4-NH2) = Nc1ccc(C[C@@H](N)C(=O)O)cc1; dPhe(4-Cl) = N[C@H](Cc1ccc(Cl)cc1)C(=O)O; Phe(4-NH2) = Nc1ccc(C[C@H](N)C(=O)O)cc1; d2Nal = N[C@H](Cc1ccc2ccccc2c1)C(=O)O; Lys(iPr) = CC(C)NCCCC[C@H](N)C(=O)O; d3Pal = N[C@H](Cc1cccnc1)C(=O)O; X1 = O=C1NC[C@@H](C(=O)*)N1; CO = O=C([*:1])[*:2]

Experiments:
[1] = test system: secretion of LH; assay: in vivo rat LH suppression test (circulating LH levels in castrated male rats after sc injection); set-up: species or system castrated male Sprague-Dawley rats; conditions: for effectiveness in suppression of LH compared with Acyline, first two days: days 1-2; for suppression of LH compared with Acyline at days 3 and 4 (72 and 96 hours; after the first 2 days): days 3-4; for effectiveness in suppression of LH compared with Acyline, day 1 through day 3: days 1-3; for effectiveness in suppression of LH compared with Acyline, day 1 through day 4 (96 hours): days 1-4
Procedure: The peptide is assayed in vivo to determine its effectiveness to suppress the secretion of LH in rats. Measurement of circulating LH levels in castrated male Sprague-Dawley rats treated subcutaneously with the peptide is carried out as reported in C. Rivier et al. Biol. Reproduc., 1983, 29, 374-378. The peptides are first dissolved at a concentration of 1.0 or 10 mg/ml in bacteriostatic water and then further diluted in 0.04 M phosphate buffer containing 0.1% BSA. Subsequent dilutions are made in phosphate buffer. The peptides are injected sc into 5 rats, and blood samples (300 μl) are collected under metotane anesthesia. Sera (50 μl) are tested for LH levels in duplicate using reagents provided by the National Pituitary and Hormone Distribution Program of the NIDDK.

[2] = hydrophilicity by RP-HPLC retention time (TEAP pH 7.0 / CH3CN gradient); assay type: physicochemical; conditions: for hydrophilicity compared with Azaline B: RP-HPLC elution
[3] = water solubility compared with Acyline; assay type: physicochemical

CNC(=O)Nc1ccc(C[C@H](NC(=O)[C@H](CO)NC(=O)[C@@H](Cc2cccnc2)NC(=O)[C@@H](Cc2ccc(Cl)cc2)NC(=O)[C@@H](Cc2ccc3ccccc3c2)NC(C)=O)C(=O)N[C@H](Cc2ccc(NC(=O)NC)cc2)C(=O)N[C@@H](CC(C)C)C(=O)N[C@@H](CCCCNC(C)C)C(=O)N2CCC[C@H]2C(=O)N[C@H](C)C(N)=O)cc1 [Example 1M, Ac-β-D-2Nal-D-4Cpa-D-3Pal-Ser-4Aph(methylcarbamoyl)-D-4Aph(methylcarbamoyl)-Leu-Lys(isopropyl)-Pro-D-Ala-NH2] (Ac-[d2Nal][dPhe(4-Cl)][d3Pal]S[Phe(4-NH2)]([CO-NHMe])[dPhe(4-NH2)]([CO-NHMe])L[Lys(iPr)]P[dA]-NH2)
effectiveness in suppression of LH compared with Acyline, first two days ([1]; 50 micrograms sc): about as effective as Acyline
suppression of LH compared with Acyline at days 3 and 4 (72 and 96 hours; after the first 2 days) ([1]; 50 micrograms sc): begins to drop off somewhat

Ac-β-D-2Nal-D-4Cpa-D-3Pal-Ser-4Aph(hydroorotyl)-D-4Aph(D-hydroorotyl)-Leu-Lys(isopropyl)-Pro-D-Ala-NH2 [Example 1H]
hydrophilicity compared with Azaline B [2]: more hydrophilic than Azaline B
duration of bioactivity for the suppression of LH (rating in words) ([1]; 50 micrograms sc): very long-acting
suppression of LH compared with Acyline at 96 hours / 4 days (after day 3) ([1]; 50 micrograms sc, 96 hours): substantially more effective than Acyline
effectiveness in suppression of LH compared with Acyline, day 1 through day 3 ([1]; 50 micrograms sc): about as effective as Acyline

Ac-β-D-2Nal-D-Cpa-D-3Pal-Ser-4Aph(D-hydroorotyl)-D-4Aph(acetyl)-Leu-Lys(isopropyl)-Pro-D-Ala-NH2 [Example 1D]
duration of bioactivity for the suppression of LH (rating in words) ([1]; 50 micrograms sc): long-acting
effectiveness in suppression of LH compared with Acyline, day 1 through day 4 (96 hours) ([1]; 50 micrograms sc): about as effective as Acyline

CC(=O)Nc1ccc(C[C@@H](NC(=O)[C@H](Cc2ccc(NC(=O)[C@@H]3CNC(=O)N3)cc2)NC(=O)[C@H](CO)NC(=O)[C@@H](Cc2cccnc2)NC(=O)[C@@H](Cc2ccc(Cl)cc2)NC(=O)[C@@H](Cc2ccc3ccccc3c2)NC(C)=O)C(=O)N[C@@H](CC(C)C)C(=O)N[C@@H](CCCCNC(C)C)C(=O)N2CCC[C@H]2C(=O)N[C@H](C)C(N)=O)cc1 [Example 3A] (Ac-[d2Nal][dPhe(4-Cl)][d3Pal]S[Phe(4-NH2)](X1)[dPhe(4-NH2)](Ac)L[Lys(iPr)]P[dA]-NH2)
water solubility compared with Acyline [3]: more water soluble than Acyline

Ac-D-2Nal-D-4Cpa-D-3Pal-Ser-4Aph(D-hydroorotyl)-D-4Amf(Ac)-Leu-ILys-Pro-D- Ala-NH2 [Example 5A]
suppression of LH compared with Acyline at 96 hours / 4 days (after day 3) ([1]; 50 micrograms sc, 96 hours): somewhat superior to Acyline
effectiveness in suppression of LH compared with Acyline, day 1 through day 3 ([1]; 50 micrograms sc): substantially the same as Acyline

methylcarbamoyl-β-D-2Nal-D-4Cpa-D-3Pal-Ser-4Aph(hydroorotyl)-D-4Aph(acetyl)-Leu-Lys(isopropyl)-Pro-D-Ala-NH2 [Example 1J]
hydrophilicity compared with Azaline B [2]: more hydrophilic than Azaline B
duration of bioactivity for the suppression of LH (rating in words) ([1]; 50 micrograms sc): very long-acting
how much more effective than Acyline in suppression of LH after 96 hours ([1]; 50 micrograms sc, 96 hours): ~50%
effectiveness in suppression of LH compared with Acyline, day 1 through day 3 ([1]; 50 micrograms sc): about as effective as Acyline

Ac-β-D-2Nal-D-4Cpa-D-3Pal-Ser-4Aph(hydroorotyl)-D-4Aph(hydroorotyl)-Leu-Lys(isopropyl)-Pro-D-Ala-NH2 [Example 1G]
hydrophilicity compared with Azaline B [2]: more hydrophilic than Azaline B
duration of bioactivity for the suppression of LH (rating in words) ([1]; 50 micrograms sc): long-acting
effectiveness in suppression of LH compared with Acyline, day 1 through day 4 (96 hours) ([1]; 50 micrograms sc): about as effective as Acyline

Ac-β-D-2Nal-D-Cpa-D-3Pal-Ser-4Aph(D/L-hydroorotyl)-D-4Aph(acetyl)-Leu-Lys(isopropyl)-Pro-D-Ala-NH2 [Example 1C]
duration of bioactivity for the suppression of LH (rating in words) ([1]; 50 micrograms sc): long-acting
effectiveness in suppression of LH compared with Acyline, day 1 through day 4 (96 hours) ([1]; 50 micrograms sc): about as effective as Acyline

Ac-β-D-2Nal-D-4Cpa-D-3Pal-Ser-4Amf(hydroorotyl)-D-4Aph(carbamoyl)-Leu-Lys(isopropyl)-Pro-D-Ala-NH2 [Example 6A]
activity in suppression of LH secretion compared with Acyline after 1 day ([1]; 50 micrograms sc): as active as Acyline
activity in suppression of LH secretion compared with Acyline after 2 days ([1]; 50 micrograms sc): nearly as active
activity in suppression of LH secretion compared with Acyline after 3 days ([1]; 50 micrograms sc, 3 days): somewhat less active
suppression of LH compared with Acyline at 96 hours / 4 days (after day 3) ([1]; 50 micrograms sc, 96 hours): about the same activity as Acyline

Ac-D-2Nal-D-4Cpa-D-3Pal-Ser-4Aph(D-hydroorotyl)-D-4Amf(Cbm)-Leu-ILys-Pro-D-Ala-NH2 [Example 5]
effectiveness in suppression of LH compared with Acyline, first two days ([1]; 50 micrograms sc): about as long as Acyline
suppression of LH compared with Acyline at days 3 and 4 (72 and 96 hours; after the first 2 days) ([1]; 50 micrograms sc): some lesser degree of suppression

Ac-D-2Nal-D-4Cpa-D-3Pal-Ser-4Aph(D/L-2-imidazolidone-4-carbonyl)-D-4Aph(Ac)-Leu-ILys-Pro-D-Ala-NH2 [Example 3]
duration of bioactivity for the suppression of LH (rating in words) ([1]; 50 micrograms sc): long duration
suppression of LH compared with Acyline at days 3 and 4 (72 and 96 hours; after the first 2 days) ([1]; 50 micrograms sc): marginally better

Ac-D-2Nal-D-4Cpa-D-3Pal-Ser-4Aph(hydroorotyl)-D-Cit-Leu-ILys-Pro-D-Ala-NH2 [Example 2]
hydrophilicity compared with Cetrorelix [2]: more hydrophilic than Cetrorelix
suppression of LH at 3 days (comparator apparently Cetrorelix) ([1]; tested as in Example 1, 3 days): marginally better
suppression of LH at 96 hours (comparator apparently Cetrorelix) ([1]; tested as in Example 1, 96 hours): substantially better
duration of bioactivity for suppression of LH secretion compared with Cetrorelix ([1]; tested as in Example 1, dose not given): as long duration of bioactivity as Cetrorelix

Ac-D-2Nal-D-4Cpa-D-3Pal-Ser-4Aph(L-Imz)-D-4Amf(carbamoyl)-Leu-ILys-Pro-D-Ala-NH2 [Example 3B]
duration of bioactivity for the suppression of LH (rating in words) ([1]; 50 micrograms sc): long duration
suppression of LH compared with Acyline at 96 hours / 4 days (after day 3) ([1]; 50 micrograms sc, 96 hours): somewhat superior
effectiveness in suppression of LH compared with Acyline, day 1 through day 3 ([1]; 50 micrograms sc): substantially the same as Acyline

Ac-β-D-2Nal-D-4Cpa-D-3Pal-Ser-4Amf(hydroorotyl)-D-4Amf(acetyl)-Leu-Lys(isopropyl)-Pro-D-Ala-NH2 [Example 6]
duration of bioactivity for the suppression of LH (rating in words) ([1]; 50 micrograms sc): long-acting
effectiveness in suppression of LH compared with Acyline, first two days ([1]; 50 micrograms sc): about the same as Acyline
suppression of LH compared with Acyline at days 3 and 4 (72 and 96 hours; after the first 2 days) ([1]; 50 micrograms sc): nearly equal to that of Acyline

Acetyl-β-D-2Nal-D-4Cpa-D-3Pal-Ser-4Aph(hydroorotyl)-D-3Pal-Leu-Lys(isopropyl)-Pro-D-Ala-NH2 [Example 1K]
duration of bioactivity for the suppression of LH (rating in words) ([1]; 50 micrograms sc): very long-acting
LH levels after 96 hours as percentage of the LH levels of rats injected with Acyline ([1]; 50 micrograms sc, 96 hours, comparator Acyline 50 micrograms): about 35%
effectiveness in suppression of LH compared with Acyline, day 1 through day 3 ([1]; 50 micrograms sc): about as effective as Acyline

CC(=O)N[C@H](Cc1ccc2ccccc2c1)C(=O)N[C@H](Cc1ccc(Cl)cc1)C(=O)N[C@H](Cc1cccnc1)C(=O)N[C@@H](CO)C(=O)N[C@@H](Cc1ccc(NC(N)=O)cc1)C(=O)N[C@H](Cc1ccc(NC(N)=O)cc1)C(=O)N[C@@H](CC(C)C)C(=O)N[C@@H](CCCCNC(C)C)C(=O)N1CCC[C@H]1C(=O)N[C@H](C)C(N)=O [Example 1L, Ac-β-D-2Nal-D-4Cpa-D-3Pal-Ser-4Aph(carbamoyl)-D-4Aph(carbamoyl)-Leu-Lys(isopropyl)-Pro-D-Ala-NH2] (Ac-[d2Nal][dPhe(4-Cl)][d3Pal]S[Phe(4-NHCONH2)][dPhe(4-NHCONH2)]L[Lys(iPr)]P[dA]-NH2)
duration of bioactivity for the suppression of LH (rating in words) ([1]; 50 micrograms sc): long-acting
effectiveness in suppression of LH compared with Acyline, day 1 through day 4 (96 hours) ([1]; 50 micrograms sc): about as effective as Acyline

Ac-β-D-2Nal-D-4Cpa-D-3Pal-Ser-4Amf(hydroorotyl)-D-4Aph(acetyl)-Leu-Lys(isopropyl)-Pro-D-Ala-NH2 [Example 1F]
duration of bioactivity for the suppression of LH (rating in words) ([1]; 50 micrograms sc): long-acting
effectiveness in suppression of LH compared with Acyline, day 1 through day 4 (96 hours) ([1]; 50 micrograms sc): about as effective as Acyline

Ac-β-D-2Nal-D-4Cpa-D-3Pal-Ser-4Amf(hydroorotyl)-D-4Aph(methylcarbamoyl)-Leu-Lys(isopropyl)-Pro-D-Ala-NH2 [Example 6B]
activity in suppression of LH secretion compared with Acyline after 1 day ([1]; 50 micrograms sc): as active as Acyline
activity in suppression of LH secretion compared with Acyline after 2 days ([1]; 50 micrograms sc): about as active
suppression of LH compared with Acyline at days 3 and 4 (72 and 96 hours; after the first 2 days) ([1]; 50 micrograms sc): significantly lesser degree of suppression

Ac-β-D-2Nal-D-Cpa-D-3Pal-Ser-4Aph(hydroorotyl)-D-4Aph(acetyl)-Leu-Lys(isopropyl)-Pro-D-Ala-NH2 [Example 1B]
duration of bioactivity for the suppression of LH (rating in words) ([1]; 50 micrograms sc): very long-acting
effectiveness in suppression of LH compared with Acyline, day 1 through day 4 (96 hours) ([1]; 50 micrograms sc): about as effective as Acyline

Ac-D-2Nal-D-4Cpa-D-3Pal-Ser-4Aph(hydroorotyl)-D-4Amf(MeCbm)-Leu-ILys-Pro-D-Ala-NH2 [Example 4]
duration of bioactivity for the suppression of LH (rating in words) ([1]; 50 micrograms sc): very long-acting
suppression of LH secretion compared with Acyline (time not given) ([1]; 50 micrograms sc): better suppression of LH secretion than Acyline

Ac-β-D-2Nal-D-4Cpa-D-3Pal-Ser-4Amf(D-hydroorotyl)-D-4Aph(acetyl)-Leu- Lys(isopropyl)-Pro-D-Ala-NH2 [Example 6C]
activity in suppression of LH secretion compared with Acyline after 3 days ([1]; 50 micrograms sc, 3 days): substantially less effective than Acyline
suppression of LH compared with Acyline at 96 hours / 4 days (after day 3) ([1]; 50 micrograms sc, 96 hours): continues to significantly drop in biopotency
effectiveness in suppression of LH compared with Acyline, first two days ([1]; 50 micrograms sc): substantially as effective
